Test results taken from patent US20070213338A1, “Triazolo-Pyridazine Compounds and Derivatives Thereof Useful in the Treatment of Neuropathic Pain” (priority 2003, published 2007).

Tested on: nerve injury-induced tactile allodynia
Assay: Spinal Nerve Ligation Model (Chung Model)
Type: in vivo, Male Sprague Dawley rats
Settings: rat, i.p. dosing at 30 mg/kg
Description: The spinal nerve ligation model of neuropathic pain was used to assess the effects of test compounds on nerve injury-induced tactile allodynia (S. H. Kim and J. M. Chung, Pain 50:355-363(1992)). Male Sprague Dawley rats (175-200 g) received unilateral tight ligation of the left L5/L6 spinal nerves distal to the dorsal root ganglion using 4-0 silk suture. Behavioral nociceptive testing occurred 7-14 days following spinal nerve ligation by placing the rats in chambers on a wire mesh. Rats were tested for tactile allodynia (decreased hindpaw withdrawal threshold to non-noxious punctate stimulation) by applying a series of calibrated von Frey filaments to the plantar aspect of the left hindpaw ipsilateral to the site of nerve injury. The mean 50% hindpaw withdrawal threshold (g.) was determined using the Dixon “up-own” non-parametric test (Chaplan et al., J. Neurosci. Methods, 53:55-63(1994)). […] Following determination of pre-drug withdrawal thresholds, rats received either an i.p. or p.o. injection of test compound. The effect of the test compound on tactile allodynia was determined over time by measuring hindpaw withdrawal thresholds 30, 60, 90, 120 min post-injection.

| SMILES | effect on tactile allodynia (hindpaw withdrawal threshold) [%] |
| --- | --- |
| Cc1nnc2c3ccccc3c(OCc3cccc(CNCCc4ccccc4)n3)nn12 [Example 23] | 65 |
| FC(F)(F)c1nnc2c3ccccc3c(OCc3cccc(CNCCc4ccccc4)n3)nn12 [Example 58, Phenethyl-[6-(3-trifluoromethyl-[1,2,4]triazolo[3,4,-a]phthalazin-6-yloxymethyl)-pyridin-2-ylmethyl]-amine] | 100 |
